Source: paper PMC8722715 (Frontiers in Cell and Developmental Biology, 2021)

Legend:
[1] = molecular target: T1, hNaV1.7 channel (Homo sapiens, UniProt Q15858); test: Automated patch-clamp block of hNaV1.7 peak Na+ current in CHO cells; type: cell-based; conditions: for hNaV1.7/hNaV1.6 selectivity ratio: inverse ratio of the mean IC50 values on hNaV1.7 (CHO) and hNaV1.6 (HEK-293) of Table 1; for hNaV1.7 IC50 versus WT: ratio of analogue mean IC50 to HwTx-IV WT mean IC50 on hNaV1.7; for IC50: CHO cells stably expressing hNaV1.7, SyncroPatch 384 PE whole-cell, holding -100 mV, -10 mV test pulse 50 ms every 5 s, room temperature 18-22°C, 0.3% BSA, steady state or end of 15-min application, mean, S.E.M. and n cells
T1 construct: expressed in transfected cells
T1 sequence (Q15858 whole entry): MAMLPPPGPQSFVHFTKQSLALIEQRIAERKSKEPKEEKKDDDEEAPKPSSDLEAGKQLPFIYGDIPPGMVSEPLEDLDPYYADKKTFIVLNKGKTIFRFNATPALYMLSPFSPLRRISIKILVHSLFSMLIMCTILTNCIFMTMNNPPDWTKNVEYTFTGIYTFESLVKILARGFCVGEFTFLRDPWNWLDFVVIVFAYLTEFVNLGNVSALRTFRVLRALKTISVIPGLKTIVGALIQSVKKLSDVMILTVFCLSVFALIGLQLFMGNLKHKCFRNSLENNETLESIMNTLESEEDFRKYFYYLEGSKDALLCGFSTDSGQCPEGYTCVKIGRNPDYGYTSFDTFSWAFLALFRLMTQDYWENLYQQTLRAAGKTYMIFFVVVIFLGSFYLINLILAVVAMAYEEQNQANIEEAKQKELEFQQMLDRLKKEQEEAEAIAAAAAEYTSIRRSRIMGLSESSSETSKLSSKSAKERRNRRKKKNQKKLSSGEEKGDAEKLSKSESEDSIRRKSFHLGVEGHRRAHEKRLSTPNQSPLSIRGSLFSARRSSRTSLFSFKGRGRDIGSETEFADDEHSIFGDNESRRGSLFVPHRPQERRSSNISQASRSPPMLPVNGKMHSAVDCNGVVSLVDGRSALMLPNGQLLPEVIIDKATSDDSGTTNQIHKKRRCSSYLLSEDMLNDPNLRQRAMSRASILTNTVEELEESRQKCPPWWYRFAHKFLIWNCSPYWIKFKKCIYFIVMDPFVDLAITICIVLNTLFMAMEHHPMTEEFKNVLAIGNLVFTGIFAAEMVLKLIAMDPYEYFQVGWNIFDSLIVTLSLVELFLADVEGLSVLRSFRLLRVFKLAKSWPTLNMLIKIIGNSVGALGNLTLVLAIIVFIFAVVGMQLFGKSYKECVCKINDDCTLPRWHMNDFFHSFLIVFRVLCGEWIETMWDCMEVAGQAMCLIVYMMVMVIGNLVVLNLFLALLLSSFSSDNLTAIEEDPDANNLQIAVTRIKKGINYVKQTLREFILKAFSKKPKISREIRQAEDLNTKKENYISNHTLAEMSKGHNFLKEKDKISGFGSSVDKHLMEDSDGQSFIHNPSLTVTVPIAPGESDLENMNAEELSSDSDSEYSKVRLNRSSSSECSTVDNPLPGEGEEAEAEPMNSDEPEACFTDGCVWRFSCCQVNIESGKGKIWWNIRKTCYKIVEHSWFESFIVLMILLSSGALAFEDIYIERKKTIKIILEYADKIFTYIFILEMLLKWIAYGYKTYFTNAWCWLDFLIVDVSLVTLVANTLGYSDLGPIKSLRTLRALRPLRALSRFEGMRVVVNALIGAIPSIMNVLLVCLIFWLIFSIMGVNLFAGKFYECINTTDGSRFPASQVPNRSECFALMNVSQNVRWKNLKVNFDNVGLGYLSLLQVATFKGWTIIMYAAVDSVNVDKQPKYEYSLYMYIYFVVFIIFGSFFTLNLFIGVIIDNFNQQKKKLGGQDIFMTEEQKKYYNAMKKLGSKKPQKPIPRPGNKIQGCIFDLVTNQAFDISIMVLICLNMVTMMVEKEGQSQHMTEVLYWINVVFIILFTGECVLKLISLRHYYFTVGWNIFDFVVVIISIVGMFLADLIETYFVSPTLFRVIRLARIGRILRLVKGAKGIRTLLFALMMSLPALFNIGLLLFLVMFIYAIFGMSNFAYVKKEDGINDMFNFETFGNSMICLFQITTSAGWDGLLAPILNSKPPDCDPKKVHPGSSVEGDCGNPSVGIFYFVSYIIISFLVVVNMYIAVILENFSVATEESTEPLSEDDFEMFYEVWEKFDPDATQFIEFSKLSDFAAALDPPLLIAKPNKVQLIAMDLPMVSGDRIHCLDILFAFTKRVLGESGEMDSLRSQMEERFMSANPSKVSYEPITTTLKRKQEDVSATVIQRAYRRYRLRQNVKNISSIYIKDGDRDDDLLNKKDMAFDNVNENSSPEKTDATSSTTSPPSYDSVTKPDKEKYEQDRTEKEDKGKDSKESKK
Description: (§1) CHO cells stably expressing the hNaV1.7 channel subtype were cultured in Dulbecco’s Modified Eagle’s Medium F-12 (DMEM/F12) supplemented with 10% fetal bovine serum, 2 mM glutamine, 200 μg/ml hygromycine B, 10 U/ml penicillin and 10 μg/ml streptomycin (Gibco, Grand Island, NY). HEK-293 cells stably expressing the hNaV1.6 channel subtype were cultured in Dulbecco’s Modified Eagle’s Medium (DMEM) supplemented with 10% fetal calf serum, 1 mM pyruvic acid, 4.5 g/L glucose, 2 mM glutamine, 800 μg/ml G418, 10 U/ml penicillin and 10 μg/ml streptomycin (Gibco, Grand Island, NY). All cell lines were incubated at 37°C in a 5% CO2 atmosphere. For electrophysiological recordings, cells were detached with trypsin, and floating single cells were diluted (∼300,000 cells/ml) in an extracellular solution containing (in mM): 140 NaCl, 4 KCl, 2 CaCl2, 1 MgCl2, 5 glucose and 10 HEPES (pH 7.4, osmolarity 298 mOsm), that was used throughout the experiments.
HwTx-IV analogues were investigated on CHO cells expressing hNav1.7 channel and HEK-293 cells expressing hNaV1.6 channel using the automated patch-clamp system from Nanion (SyncroPatch 384 PE; München, Germany). Chips with single-hole and high-resistance (∼6–7 MΩ) were used for both cell lines. Voltage pulses and whole-cell recordings were achieved using the PatchControl384 v1.5.2 software (Nanion) and the Biomek v1.0 interface (Beckman Coulter). Prior to recordings, dissociated cells were shaken at 200 RPM in a cell hotel reservoir at 10°C. After cell catching, sealing, whole-cell formation, liquid application, recording, and data acquisition were all performed sequentially and automatically. The intracellular solution contained (in mM): 110 CsF, 10 CsCl, 10 NaCl, 1 MgCl2, 1 CaCl2, 10 EGTA and 10 HEPES (pH 7.2, osmolarity 280 mOsm), and the extracellular solution was as described above. Whole-cell experiments were done at −100 mV holding potential and at room temperature (18–22°C), while currents triggered at either −10 or 0 mV test potential were sampled at 20 kHz. Stimulation frequency was set at 0.2 Hz. Each HwTx-IV analogue was prepared at various concentrations in the extracellular solution, itself supplemented with 0.3% of bovine serum albumin (BSA), also added in the control solution. […] Compound solutions were diluted 3 times in the patch-clamp recording well by adding 30–60 μl external solution, to reach the final reported concentration and the test volume of 90 μl. For establishing dose-response curves, the compounds were tested at a test potential of either −10 or 0 mV for 50 ms with a pulse every 5 s. Percentages of current inhibition were measured at steady-state of blockage or at the end of a 15-min application time.

[2] = molecular target: T2, hNaV1.6 channel (Homo sapiens, UniProt Q9UQD0); test: Automated patch-clamp block of hNaV1.6 peak Na+ current in HEK-293 cells; type: cell-based; conditions: for hNaV1.6 IC50 versus WT: ratio of analogue mean IC50 to HwTx-IV WT mean IC50 on hNaV1.6; for IC50: HEK-293 cells stably expressing hNaV1.6, SyncroPatch 384 PE whole-cell, holding -100 mV, 0 mV test pulse 50 ms every 5 s, room temperature 18-22°C, 0.3% BSA, steady state or end of 15-min application, mean, S.E.M. and n cells
T2 construct: expressed in transfected cells
T2 sequence (Q9UQD0 whole entry): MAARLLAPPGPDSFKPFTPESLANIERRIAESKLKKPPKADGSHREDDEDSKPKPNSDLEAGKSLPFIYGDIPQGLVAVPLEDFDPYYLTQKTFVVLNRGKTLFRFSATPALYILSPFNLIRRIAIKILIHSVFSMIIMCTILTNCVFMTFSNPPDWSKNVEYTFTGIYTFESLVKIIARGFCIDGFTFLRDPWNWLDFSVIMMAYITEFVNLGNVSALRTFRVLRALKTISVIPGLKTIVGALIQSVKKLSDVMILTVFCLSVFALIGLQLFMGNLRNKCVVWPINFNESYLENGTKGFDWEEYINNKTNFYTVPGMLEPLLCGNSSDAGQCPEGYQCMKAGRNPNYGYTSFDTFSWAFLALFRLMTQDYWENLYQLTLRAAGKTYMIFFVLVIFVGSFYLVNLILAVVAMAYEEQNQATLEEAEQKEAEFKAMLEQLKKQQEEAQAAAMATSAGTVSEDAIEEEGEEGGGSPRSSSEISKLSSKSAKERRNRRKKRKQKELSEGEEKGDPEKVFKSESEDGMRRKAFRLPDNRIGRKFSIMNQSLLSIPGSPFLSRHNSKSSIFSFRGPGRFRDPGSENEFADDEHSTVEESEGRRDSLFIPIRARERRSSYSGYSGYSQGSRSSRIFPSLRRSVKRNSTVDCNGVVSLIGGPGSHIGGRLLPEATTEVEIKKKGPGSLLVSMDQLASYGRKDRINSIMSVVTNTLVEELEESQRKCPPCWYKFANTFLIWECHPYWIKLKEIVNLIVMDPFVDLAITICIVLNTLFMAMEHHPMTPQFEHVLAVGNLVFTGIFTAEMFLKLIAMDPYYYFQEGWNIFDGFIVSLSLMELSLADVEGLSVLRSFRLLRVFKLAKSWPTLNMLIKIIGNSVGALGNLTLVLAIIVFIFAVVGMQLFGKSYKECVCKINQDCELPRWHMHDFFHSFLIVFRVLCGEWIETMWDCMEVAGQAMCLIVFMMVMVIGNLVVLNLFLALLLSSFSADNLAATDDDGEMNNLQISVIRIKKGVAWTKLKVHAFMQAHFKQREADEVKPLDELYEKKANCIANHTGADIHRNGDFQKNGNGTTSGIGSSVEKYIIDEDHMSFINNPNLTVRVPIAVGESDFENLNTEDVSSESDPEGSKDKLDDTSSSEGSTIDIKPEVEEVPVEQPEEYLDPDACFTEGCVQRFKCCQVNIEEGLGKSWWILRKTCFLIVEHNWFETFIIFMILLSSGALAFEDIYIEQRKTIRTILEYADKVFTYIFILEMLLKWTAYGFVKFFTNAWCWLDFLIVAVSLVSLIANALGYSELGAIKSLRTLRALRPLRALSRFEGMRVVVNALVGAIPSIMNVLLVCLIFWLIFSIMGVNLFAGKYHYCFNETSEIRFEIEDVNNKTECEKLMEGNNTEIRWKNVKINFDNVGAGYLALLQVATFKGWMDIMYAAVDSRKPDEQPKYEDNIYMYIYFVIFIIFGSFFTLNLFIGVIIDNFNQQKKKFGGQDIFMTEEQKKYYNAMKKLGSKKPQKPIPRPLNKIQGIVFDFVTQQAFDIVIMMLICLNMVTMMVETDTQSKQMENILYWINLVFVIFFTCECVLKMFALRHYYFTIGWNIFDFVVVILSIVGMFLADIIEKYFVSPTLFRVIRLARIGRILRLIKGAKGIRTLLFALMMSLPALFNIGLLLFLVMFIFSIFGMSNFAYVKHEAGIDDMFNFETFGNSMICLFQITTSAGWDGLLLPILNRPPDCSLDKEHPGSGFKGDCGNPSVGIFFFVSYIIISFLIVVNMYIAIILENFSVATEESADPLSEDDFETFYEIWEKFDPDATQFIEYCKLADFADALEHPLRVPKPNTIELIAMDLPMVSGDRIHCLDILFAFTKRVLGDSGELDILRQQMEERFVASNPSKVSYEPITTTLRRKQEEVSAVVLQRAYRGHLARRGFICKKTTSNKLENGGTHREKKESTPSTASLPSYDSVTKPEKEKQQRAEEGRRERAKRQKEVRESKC
Description: as §1
HwTx-IV analogues were investigated on CHO cells expressing hNav1.7 channel and HEK-293 cells expressing hNaV1.6 channel using the automated patch-clamp system from Nanion (SyncroPatch 384 PE; München, Germany). Chips with single-hole and high-resistance (∼6–7 MΩ) were used for both cell lines. Voltage pulses and whole-cell recordings were achieved using the PatchControl384 v1.5.2 software (Nanion) and the Biomek v1.0 interface (Beckman Coulter). Prior to recordings, dissociated cells were shaken at 200 RPM in a cell hotel reservoir at 10°C. After cell catching, sealing, whole-cell formation, liquid application, recording, and data acquisition were all performed sequentially and automatically. The intracellular solution contained (in mM): 110 CsF, 10 CsCl, 10 NaCl, 1 MgCl2, 1 CaCl2, 10 EGTA and 10 HEPES (pH 7.2, osmolarity 280 mOsm), and the extracellular solution was as described above. Whole-cell experiments were done at −100 mV holding potential and at room temperature (18–22°C), while currents triggered at either −10 or 0 mV test potential were sampled at 20 kHz. Stimulation frequency was set at 0.2 Hz. Each HwTx-IV analogue was prepared at various concentrations in the extracellular solution, itself supplemented with 0.3% of bovine serum albumin (BSA), also added in the control solution. The peptides were distributed in 384-well microplates according to the number of compounds to be tested (generally four), the concentration range defined from the IC50 of wild-type HwTx-IV, and the number of cells desired for each experimental condition. Compound solutions were diluted 3 times in the patch-clamp recording well by adding 30–60 μl external solution, to reach the final reported concentration and the test volume of 90 μl. For establishing dose-response curves, the compounds were tested at a test potential of either −10 or 0 mV for 50 ms with a pulse every 5 s. Percentages of current inhibition were measured at steady-state of blockage or at the end of a 15-min application time.

Structure (SMILES)	hNaV1.7/hNaV1.6 selectivity ratio ([1]; listed as E^4K)	hNaV1.7/hNaV1.6 selectivity ratio ([1]; listed as HwTx-IV E^4K)	hNaV1.7 IC50 versus WT [1]	hNaV1.7 IC50 versus WT ([1]; listed as HwTx-IV E^4G)	hNaV1.7 IC50 versus WT ([1]; listed as HwTx-IV E^4K)	hNaV1.6 IC50 versus WT [2]	hNaV1.6 IC50 versus WT ([2]; listed as HwTx-IV E^4G)	hNaV1.6 IC50 versus WT ([2]; listed as HwTx-IV E^4K)	hNaV1.6 IC50 versus WT ([2]; listed as HwTx-IV E^4R)	IC50 [1] [nM]	IC50 [2] [nM]	hNaV1.7/hNaV1.6 selectivity ratio [1]
CC[C@H](C)[C@H](NC(=O)[C@H](CCC(N)=O)NC(=O)[C@H](Cc1ccc(O)cc1)NC(=O)[C@H](CCCCN)NC(=O)[C@@H]1CSSC[C@@H]2NC(=O)[C@H](CCC(N)=O)NC(=O)[C@H](CC(=O)O)NC(=O)[C@H](CC(N)=O)NC(=O)[C@H](CO)NC(=O)[C@@H]3CCCN3C(=O)[C@H](CC(N)=O)NC(=O)[C@@H]3CSSC[C@H](NC(=O)[C@H](C(C)C)NC(=O)[C@H](CC(C)C)NC(=O)[C@H](CCCCN)NC(=O)[C@H](CO)NC(=O)[C@H](CO)NC(=O)[C@H](CCCCN)NC(=O)[C@H](CSSC[C@H](NC(=O)CN)C(=O)N[C@@H](CC(C)C)C(=O)N[C@@H](CCC(=O)O)C(=O)N[C@@H]([C@@H](C)CC)C(=O)N[C@@H](Cc4ccccc4)C(=O)N[C@@H](CCCCN)C(=O)N[C@@H](C)C(=O)N3)NC2=O)C(=O)N[C@@H](CO)C(=O)N[C@@H](CCCNC(=N)N)C(=O)N[C@@H](CCCCN)C(=O)N[C@@H]([C@@H](C)O)C(=O)N[C@@H](CCCNC(=N)N)C(=O)N[C@@H](Cc2c[nH]c3ccccc23)C(=O)N1)C(N)=O [HwTx-IV E^1G]	less than 2	~1	0.70	0.16	1.43	0.28	0.03	0.09	0.05	–	–	–
CC[C@H](C)[C@H](NC(=O)[C@H](CCC(N)=O)NC(=O)[C@H](Cc1ccc(O)cc1)NC(=O)[C@H](CCCCN)NC(=O)[C@@H]1CSSC[C@@H]2NC(=O)[C@H](CCC(N)=O)NC(=O)[C@H](CC(=O)O)NC(=O)[C@H](CC(N)=O)NC(=O)[C@H](CO)NC(=O)[C@@H]3CCCN3C(=O)[C@H](CC(N)=O)NC(=O)[C@@H]3CSSC[C@H](NC(=O)[C@H](C(C)C)NC(=O)[C@H](CC(C)C)NC(=O)[C@H](CCCCN)NC(=O)[C@H](CO)NC(=O)[C@H](CO)NC(=O)[C@H](CCCCN)NC(=O)[C@H](CSSC[C@H](NC(=O)[C@@H](N)CCC(=O)O)C(=O)N[C@@H](CC(C)C)C(=O)NCC(=O)N[C@@H]([C@@H](C)CC)C(=O)N[C@@H](Cc4ccccc4)C(=O)N[C@@H](CCCCN)C(=O)N[C@@H](C)C(=O)N3)NC2=O)C(=O)N[C@@H](CO)C(=O)N[C@@H](CCCNC(=N)N)C(=O)N[C@@H](CCCCN)C(=O)N[C@@H]([C@@H](C)O)C(=O)N[C@@H](CCCNC(=N)N)C(=O)N[C@@H](Cc2c[nH]c3ccccc23)C(=O)N1)C(=O)O [HwTx-IV E^4G/CterCOOH]	–	–	1.51	–	–	0.24	–	–	–	14.9	55.1	–
CC[C@H](C)[C@H](NC(=O)[C@H](CCC(N)=O)NC(=O)[C@H](Cc1ccc(O)cc1)NC(=O)[C@H](CCCCN)NC(=O)[C@@H]1CSSC[C@@H]2NC(=O)[C@H](CCC(N)=O)NC(=O)[C@H](CC(=O)O)NC(=O)[C@H](CC(N)=O)NC(=O)[C@H](CO)NC(=O)[C@@H]3CCCN3C(=O)[C@H](CC(N)=O)NC(=O)[C@@H]3CSSC[C@H](NC(=O)[C@H](C(C)C)NC(=O)[C@H](CC(C)C)NC(=O)[C@H](CCCCN)NC(=O)[C@H](CO)NC(=O)[C@H](CO)NC(=O)[C@H](CCCCN)NC(=O)[C@H](CSSC[C@H](NC(=O)[C@@H](N)CCC(=O)O)C(=O)N[C@@H](CC(C)C)C(=O)N[C@@H](CCCCN)C(=O)N[C@@H]([C@@H](C)CC)C(=O)N[C@@H](Cc4ccccc4)C(=O)N[C@@H](CCCCN)C(=O)N[C@@H](C)C(=O)N3)NC2=O)C(=O)N[C@@H](CO)C(=O)N[C@@H](CCCNC(=N)N)C(=O)N[C@@H](CCCCN)C(=O)N[C@@H]([C@@H](C)O)C(=O)N[C@@H](CCCNC(=N)N)C(=O)N[C@@H](Cc2c[nH]c3ccccc23)C(=O)N1)C(=O)O [HwTx-IV E^4K/CterCOOH]	–	–	1.20	–	–	0.60	–	–	–	11.9	136	–
CC[C@H](C)[C@H](NC(=O)[C@H](CCC(N)=O)NC(=O)[C@H](Cc1c[nH]c2ccccc12)NC(=O)[C@H](CCCCN)NC(=O)[C@@H]1CSSC[C@@H]2NC(=O)[C@H](CCC(N)=O)NC(=O)[C@H](CC(=O)O)NC(=O)[C@H](CC(N)=O)NC(=O)[C@H](CO)NC(=O)[C@@H]3CCCN3C(=O)[C@H](CC(N)=O)NC(=O)[C@@H]3CSSC[C@H](NC(=O)[C@H](C(C)C)NC(=O)[C@H](CC(C)C)NC(=O)[C@H](CCCCN)NC(=O)[C@H](CO)NC(=O)[C@H](CO)NC(=O)[C@H](CCCCN)NC(=O)[C@H](CSSC[C@H](NC(=O)[C@@H](N)CCC(=O)O)C(=O)N[C@@H](CC(C)C)C(=O)N[C@@H](CCCCN)C(=O)N[C@@H]([C@@H](C)CC)C(=O)N[C@@H](Cc4ccccc4)C(=O)N[C@@H](CCCCN)C(=O)N[C@@H](C)C(=O)N3)NC2=O)C(=O)N[C@@H](CO)C(=O)N[C@@H](C)C(=O)N[C@@H](CCCCN)C(=O)N[C@@H]([C@@H](C)O)C(=O)N[C@@H](CCCNC(=N)N)C(=O)N[C@@H](Cc2c[nH]c3ccccc23)C(=O)N1)C(N)=O [HwTx-IV E^4K/R ^26A/Y^33W]	–	–	0.09	–	–	0.38	–	–	–	0.9	86.4	above 46
